SMILES strings stand for the structures.

This passage reports IC50 results from patent US7750003B2, “Compounds-943” (AstraZeneca AB, priority 2006, dated 2010).

recombinant mTOR (FLAG-tagged, residues 1362-2549), sequence (P42345 1362-2549): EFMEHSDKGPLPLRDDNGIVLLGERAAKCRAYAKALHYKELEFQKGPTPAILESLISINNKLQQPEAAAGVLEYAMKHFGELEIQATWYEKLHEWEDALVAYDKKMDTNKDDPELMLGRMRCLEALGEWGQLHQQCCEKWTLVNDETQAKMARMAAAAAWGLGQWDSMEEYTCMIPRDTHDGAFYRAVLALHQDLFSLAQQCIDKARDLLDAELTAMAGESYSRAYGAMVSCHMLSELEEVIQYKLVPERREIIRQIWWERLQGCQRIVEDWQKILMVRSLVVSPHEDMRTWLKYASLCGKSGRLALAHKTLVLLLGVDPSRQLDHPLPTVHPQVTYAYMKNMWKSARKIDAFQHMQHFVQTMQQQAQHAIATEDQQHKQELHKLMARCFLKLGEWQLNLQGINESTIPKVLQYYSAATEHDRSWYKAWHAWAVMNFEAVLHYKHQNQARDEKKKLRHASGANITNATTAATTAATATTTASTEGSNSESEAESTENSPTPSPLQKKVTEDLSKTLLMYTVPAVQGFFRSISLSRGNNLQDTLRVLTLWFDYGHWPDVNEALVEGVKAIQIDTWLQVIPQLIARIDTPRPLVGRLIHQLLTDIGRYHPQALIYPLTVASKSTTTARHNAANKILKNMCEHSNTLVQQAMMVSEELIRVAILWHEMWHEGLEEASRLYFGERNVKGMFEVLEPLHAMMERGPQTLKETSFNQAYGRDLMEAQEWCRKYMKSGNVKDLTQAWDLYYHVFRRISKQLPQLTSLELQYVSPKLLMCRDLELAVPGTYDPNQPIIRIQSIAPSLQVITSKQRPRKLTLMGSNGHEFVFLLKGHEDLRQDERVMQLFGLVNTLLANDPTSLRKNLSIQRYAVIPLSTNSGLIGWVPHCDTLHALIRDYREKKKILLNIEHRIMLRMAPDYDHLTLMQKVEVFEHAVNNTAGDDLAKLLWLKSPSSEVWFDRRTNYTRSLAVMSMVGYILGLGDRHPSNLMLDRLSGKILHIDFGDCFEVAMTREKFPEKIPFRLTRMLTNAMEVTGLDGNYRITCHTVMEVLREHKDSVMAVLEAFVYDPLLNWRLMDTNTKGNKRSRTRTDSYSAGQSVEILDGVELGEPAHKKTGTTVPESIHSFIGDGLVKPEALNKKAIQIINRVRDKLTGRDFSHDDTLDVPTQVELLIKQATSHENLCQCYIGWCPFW

The target of this experiment is recombinant mTOR (FLAG-tagged, residues 1362-2549) (Homo sapiens, UniProt P42345). The experiment can be described thus: In vitro mTOR kinase assay (Test (a), AlphaScreen). It is filed as biochemical. Particulars: ATP 20 μM, read-out: Test (a): IC50 versus mTOR kinase. How it is done:
(a) In Vitro mTOR Kinase Assay
Following expression in the mammalian HEK293 cell line, expressed protein was purified using the FLAG epitope tag using standard purification techniques.
Aliquots (2 μl) of each compound dilution were placed into a well of a Greiner 384-well low volume (LV) white polystyrene plate (Greiner Bio-one).
These assay solutions were incubated for 2 hours at room temperature.
The resultant signals arising from laser light excitation at 680 nm were read using a Packard Envision instrument.
The phosphorylated biotinylated peptide that is associated with AlphaScreen Streptavidin donor beads forms a complex with the p70 S6 Kinase (T389) 1A5 Monoclonal Antibody that is associated with Alphascreen Protein A acceptor beads. Upon laser light excitation at 680 nm, the donor bead: acceptor bead complex produces a signal that can be measured. Accordingly, the presence of mTOR kinase activity results in an assay signal. In the presence of an mTOR kinase inhibitor, signal strength is reduced.
mTOR enzyme inhibition for a given test compound was expressed as an IC50 value.
Regarding `CC(C)NC(=O)Nc1ccc(-c2nc(CS(C)(=O)=O)cc(N3CCOCC3)n2)cc1` [Example 7, 3-[4-[4-(Methylsulfonylmethyl)-6-morpholin-4-yl-pyrimidin-2-yl]phenyl]-1-propan-2-yl-urea], the IC50 (as a rule, the concentration needed to halve the response being measured) amounted to 170 nM. For `Cc1ccc(NC(=O)Nc2ccc(-c3nc(CS(C)(=O)=O)cc(N4CCOCC4)n3)cc2)cc1` [Example 7a, 1-(4-methylphenyl)-3-[4-[4-(methylsulfonylmethyl)-6-morpholin-4-yl-pyrimidin-2-yl]phenyl]urea], the IC50 worked out at 280 nM. Turning to `CS(=O)(=O)Cc1cc(N2CCOCC2)nc(-c2ccc(NC(=O)Nc3ccc(Cl)cc3)cc2)n1` [Example 7b, 3-(4-chlorophenyl)-1-[4-[4-(methylsulfonylmethyl)-6-morpholin-4-yl-pyrimidin-2-yl]phenyl]urea], the IC50 worked out at 420 nM. To `CS(=O)(=O)Cc1cc(N2CCOCC2)nc(-c2ccc(NC(=O)Nc3ccc(C(F)(F)F)cc3)cc2)n1` [Example 7c, 1-[4-[4-(methylsulfonylmethyl)-6-morpholin-4-yl-pyrimidin-2-yl]phenyl]-3-[4-(trifluoromethyl)phenyl]urea] belongs 1700 nM; to `Cc1cc(C)cc(NC(=O)Nc2ccc(-c3nc(CS(C)(=O)=O)cc(N4CCOCC4)n3)cc2)c1` [Example 7d, 1-(3,5-dimethylphenyl)-3-[4-[4-(methylsulfonylmethyl)-6-morpholin-4-yl-pyrimidin-2-yl]phenyl]urea], 2600 nM; to `CS(=O)(=O)Cc1cc(N2CCOCC2)nc(-c2ccc(NC(=O)Nc3ccccc3OC(F)F)cc2)n1` [Example 7e, 3-[2-(difluoromethoxy)phenyl]-1-[4-[4-(methylsulfonylmethyl)-6-morpholin-4-yl-pyrimidin-2-yl]phenyl]urea], 2600 nM. With `CS(=O)(=O)Cc1cc(N2CCOCC2)nc(-c2ccc(NC(=O)Nc3ccc(F)c(Cl)c3)cc2)n1` [Example 7g, 3-(3-chloro-4-fluoro-phenyl)-1-[4-[4-(methylsulfonylmethyl)-6-morpholin-4-yl-pyrimidin-2-yl]phenyl]urea], the IC50 was found to be 1300 nM.

As to `CS(=O)(=O)Cc1cc(N2CCOCC2)nc(-c2ccc(NC(=O)Nc3ccccc3)cc2)n1` [Example 7h, 1-[4-[4-(methylsulfonylmethyl)-6-morpholin-4-yl-pyrimidin-2-yl]phenyl]-3-phenyl-urea], the IC50 was found to be 240 nM. In the case of `CCCCCNC(=O)Nc1ccc(-c2nc(CS(C)(=O)=O)cc(N3CCOCC3)n2)cc1` [Example 7j, 3-[4-[4-(methylsulfonylmethyl)-6-morpholin-4-yl-pyrimidin-2-yl]phenyl]-1-pentyl-urea], the IC50 is 1900 nM. With `CS(=O)(=O)Cc1cc(N2CCOCC2)nc(-c2ccc(NC(=O)Nc3ccc(F)c(F)c3)cc2)n1` [Example 7k, 3-(3,4-difluorophenyl)-1-[4-[4-(methylsulfonylmethyl)-6-morpholin-4-yl-pyrimidin-2-yl]phenyl]urea], the IC50 was 720 nM. As for `CS(=O)(=O)Cc1cc(N2CCOCC2)nc(-c2ccc(NC(=O)NC3CCCCC3)cc2)n1` [Example 7l, 3-cyclohexyl-1-[4-[4-(methylsulfonylmethyl)-6-morpholin-4-yl-pyrimidin-2-yl]phenyl]urea], the IC50 is 7000 nM. As to `CCCNC(=O)Nc1ccc(-c2nc(CS(C)(=O)=O)cc(N3CCOCC3)n2)cc1` [Example 7n, 3-[4-[4-(methylsulfonylmethyl)-6-morpholin-4-yl-pyrimidin-2-yl]phenyl]-1-propyl-urea], the IC50 came out at 200 nM. To `CCc1cccc(NC(=O)Nc2ccc(-c3nc(CS(C)(=O)=O)cc(N4CCOCC4)n3)cc2)c1` [Example 7o, 1-(3-ethylphenyl)-3-[4-[4-(methylsulfonylmethyl)-6-morpholin-4-yl-pyrimidin-2-yl]phenyl]urea] belongs 1700 nM; to `CS(=O)(=O)Cc1cc(N2CCOCC2)nc(-c2ccc(NC(=O)NCc3ccco3)cc2)n1` [Example 7p, 3-(2-furylmethyl)-1-[4-[4-(methylsulfonylmethyl)-6-morpholin-4-yl-pyrimidin-2-yl]phenyl]urea], 3800 nM; to `CS(=O)(=O)Cc1cc(N2CCOCC2)nc(-c2ccc(NC(=O)NCCc3cccs3)cc2)n1` [Example 7q, 1-[4-[4-(methylsulfonylmethyl)-6-morpholin-4-yl-pyrimidin-2-yl]phenyl]-3-(2-thiophen-2-ylethyl)urea], 1700 nM. As to `CS(=O)(=O)Cc1cc(N2CCOCC2)nc(-c2ccc(NC(=O)Nc3cccs3)cc2)n1` [Example 7r, 1-[4-[4-(methylsulfonylmethyl)-6-morpholin-4-yl-pyrimidin-2-yl]phenyl]-3-thiophen-2-yl-urea], the IC50 came to 190 nM.

Consider `CS(=O)(=O)Cc1cc(N2CCOCC2)nc(-c2ccc(NC(=O)NC3CC3)cc2)n1` [Example 8, 3-Cyclopropyl-1-[4-[4-(methylsulfonylmethyl)-6-morpholin-4-yl-pyrimidin-2-yl]phenyl]urea], for which the IC50 is 31 nM.

`CC(C)(C)NC(=O)Nc1ccc(-c2nc(CS(C)(=O)=O)cc(N3CCOCC3)n2)cc1` [Example 8a, 1-[4-[4-(methylsulfonylmethyl)-6-morpholin-4-yl-pyrimidin-2-yl]phenyl]-3-tert-butyl-urea]: the half-inhibitory concentration (IC50) is 470 nM.

Take `CC(=O)NCCNC(=O)Nc1ccc(-c2nc(CS(C)(=O)=O)cc(N3CCOCC3)n2)cc1` [Example 8b, N-[2-[[4-[4-(methylsulfonylmethyl)-6-morpholin-4-yl-pyrimidin-2-yl]phenyl]carbamoylamino]ethyl]acetamide]: the IC50 worked out at 420 nM. Consider `CN(C)CCN(C)C(=O)Nc1ccc(-c2nc(CS(C)(=O)=O)cc(N3CCOCC3)n2)cc1` [Example 8c, 1-(2-dimethylaminoethyl)-1-methyl-3-[4-[4-(methylsulfonylmethyl)-6-morpholin-4-yl-pyrimidin-2-yl]phenyl]urea], for which the IC50 amounted to 2200 nM.

As for `CS(=O)(=O)Cc1cc(N2CCOCC2)nc(-c2ccc(NC(=O)NCc3ncc[nH]3)cc2)n1` [Example 8d, 3-(1H-imidazol-2-ylmethyl)-1-[4-[4-(methylsulfonylmethyl)-6-morpholin-4-yl-pyrimidin-2-yl]phenyl]urea], the 50% inhibitory concentration (IC50) was determined as 570 nM. For `CN(C(=O)Nc1ccc(-c2nc(CS(C)(=O)=O)cc(N3CCOCC3)n2)cc1)C1CC1` [Example 8e, 1-cyclopropyl-1-methyl-3-[4-[4-(methylsulfonylmethyl)-6-morpholin-4-yl-pyrimidin-2-yl]phenyl]urea], the IC50 worked out at 280 nM. For `CC(C)CNC(=O)Nc1ccc(-c2nc(CS(C)(=O)=O)cc(N3CCOC[C@@H]3C)n2)cc1` [Example 8f, 1-[4-[4-[(3S)-3-Methylmorpholin-4-yl]-6-(methylsulfonylmethyl)pyrimidin-2-yl]phenyl]-3-(2-methylpropyl)urea], the IC50 came out at 300 nM.

For the molecule `CC(C)NC(=O)Nc1cccc(-c2nc(CS(C)(=O)=O)cc(N3CCOC[C@@H]3C)n2)c1` [Example 8g, 1-[3-[4-[(3S)-3-Methylmorpholin-4-yl]-6-(methylsulfonylmethyl)pyrimidin-2-yl]phenyl]-3-propan-2-yl-urea], the IC50 came out at 960 nM.

For `CCNC(=O)Nc1cccc(-c2nc(CS(C)(=O)=O)cc(N3CCOC[C@@H]3C)n2)c1` [Example 8h, 3-Ethyl-1-[3-[4-[(3S)-3-methylmorpholin-4-yl]-6-(methylsulfonylmethyl)pyrimidin-2-yl]phenyl]urea], the IC50 was 920 nM. The value for `CCNC(=O)Nc1ccc(-c2nc(CS(C)(=O)=O)cc(N3CCOC[C@@H]3C)n2)cc1Cl` [Example 8i, 1-[2-Chloro-4-[4-[(3S)-3-methylmorpholin-4-yl]-6-(methylsulfonylmethyl)pyrimidin-2-yl]phenyl]-3-ethyl-urea] was 1400 nM; that for `CNC(=O)Nc1ccc(-c2nc(CS(C)(=O)=O)cc(N3CCOC[C@@H]3C)n2)cc1C` [Example 8j, 3-Methyl-1-[2-methyl-4-[4-[(3S)-3-methylmorpholin-4-yl]-6-(methylsulfonylmethyl)pyrimidin-2-yl]phenyl]urea] was 160 nM; that for `CC(C)S(=O)(=O)Cc1cc(N2CCOC[C@@H]2C)nc(-c2ccc(NC(=O)Nc3ccccc3)cc2)n1` [Example 9, 1-[4-[4-[(3S)-3-Methylmorpholin-4-yl]-6-(propan-2-ylsulfonylmethyl)pyrimidin-2-yl]phenyl]-3-phenyl-urea] was 590 nM. For `C[C@H]1COCCN1c1cc(CO)nc(-c2ccc(NC(=O)N(C)C)cc2)n1` [Example 10, 3-[4-[4-(Hydroxymethyl)-6-[(3S)-3-methylmorpholin-4-yl]pyrimidin-2-yl]phenyl]-1,1-dimethyl-urea], the half-inhibitory concentration (IC50) turned out to be 19000 nM. Take `CC(=O)NCCS(=O)(=O)Cc1cc(N2CCOC[C@@H]2C)nc(-c2ccc(NC(=O)Nc3ccccc3)cc2)n1` [Example 11, N-[2-[[6-[(3S)-3-methylmorpholin-4-yl]-2-[4-(phenylcarbamoylamino)phenyl]pyrimidin-4-yl]methylsulfonyl]ethyl]acetamide]: the IC50 came out at 140 nM. For the molecule `C[C@H]1COCCN1c1cc(CS(=O)(=O)c2ccccc2)nc(-c2ccc(NC(=O)Nc3ccccc3)cc2)n1` [Example 12, 1-[4-[4-(Benzenesulfonylmethyl)-6-[(3S)-3-methylmorpholin-4-yl]pyrimidin-2-yl]phenyl]-3-phenyl-urea], the IC50 came to 230 nM. To `C[C@H]1COCCN1c1cc(CS(=O)(=O)CC#N)nc(-c2ccc(NC(=O)N(C)C)cc2)n1` [Example 13, 3-[4-[4-(Cyanomethylsulfonylmethyl)-6-[(3S)-3-methylmorpholin-4-yl]pyrimidin-2-yl]phenyl]-1,1-dimethyl-urea] belongs 2100 nM.
